In PubChem BioAssay (NCI):
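The compound was tested at five concentrations on cells cultured in 96-well plates, with a 48-hour exposure period. TGI is the concentration that stops growth completely.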

Tests used:
Experiment in all cases: NCI tumour cell line growth inhibition, 48 h
ACHN renal = system: ACHN renal
CAKI-1 renal = system: CAKI-1 renal
A549 NSCLC = system: A549 NSCLC
SNB-19 CNS = system: SNB-19 CNS
OVCAR-3 ovarian = system: OVCAR-3 ovarian
UACC-257 melanoma = system: UACC-257 melanoma
SN12C renal = system: SN12C renal
OVCAR-5 ovarian = system: OVCAR-5 ovarian
M19-MEL melanoma = system: M19-MEL melanoma
XF 498 CNS = system: XF 498 CNS
CCRF-CEM leukemia = system: CCRF-CEM leukemia
786-0 renal = system: 786-0 renal
K-562 leukemia = system: K-562 leukemia
LXFL 529 NSCLC = system: LXFL 529 NSCLC
U251 CNS = system: U251 CNS
HCT-116 colon = system: HCT-116 colon
OVCAR-8 ovarian = system: OVCAR-8 ovarian
KM12 colon = system: KM12 colon
DMS 114 small cell lung = system: DMS 114 small cell lung
UACC-62 melanoma = system: UACC-62 melanoma
COLO 205 colon = system: COLO 205 colon
NCI-H226 lung = system: NCI-H226 lung
HOP-62 NSCLC = system: HOP-62 NSCLC
SF-539 CNS = system: SF-539 CNS
LOX IMVI melanoma = system: LOX IMVI melanoma
UO-31 renal = system: UO-31 renal
IGROV1 ovarian = system: IGROV1 ovarian
SK-MEL-28 melanoma = system: SK-MEL-28 melanoma
SK-OV-3 ovarian = system: SK-OV-3 ovarian
MOLT-4 leukemia = system: MOLT-4 leukemia
NCI-H522 lung = system: NCI-H522 lung
SR leukemia = system: SR leukemia
SF-268 CNS = system: SF-268 CNS
NCI-H23 lung = system: NCI-H23 lung
MALME-3M melanoma = system: MALME-3M melanoma
KM20L2 colon = system: KM20L2 colon
HOP-18 NSCLC = system: HOP-18 NSCLC
TK-10 renal = system: TK-10 renal
SW-620 colon = system: SW-620 colon
SNB-78 CNS = system: SNB-78 CNS
DLD-1 colon = system: DLD-1 colon
HT29 colon = system: HT29 colon
SF-295 CNS = system: SF-295 CNS
SNB-75 CNS = system: SNB-75 CNS
OVCAR-4 ovarian = system: OVCAR-4 ovarian
HL-60(TB) leukemia = system: HL-60(TB) leukemia
HCC-2998 colon = system: HCC-2998 colon
EKVX NSCLC = system: EKVX NSCLC
RXF 393 renal = system: RXF 393 renal
RXF-631 renal = system: RXF-631 renal
DMS 273 small cell lung = system: DMS 273 small cell lung
A498 renal = system: A498 renal
M14 melanoma = system: M14 melanoma
SK-MEL-2 melanoma = system: SK-MEL-2 melanoma
HOP-92 NSCLC = system: HOP-92 NSCLC

Work on `O=S1CSSC1` yielded a TGI (ACHN renal) of 94.9 µM, a TGI (CAKI-1 renal) of 77.4 µM and a TGI (A549 NSCLC) greater than 100 µM. For the same compound, the TGI (SNB-19 CNS) was greater than 100 µM, the TGI (OVCAR-3 ovarian) was 58.9 µM and the TGI (UACC-257 melanoma) was 36.4 µM. The TGI (SN12C renal) was 24.4 µM, the TGI (OVCAR-5 ovarian) was 36.7 µM and the TGI (M19-MEL melanoma) was 14.4 µM. For the same compound, the TGI (XF 498 CNS) was 50.1 µM, the TGI (CCRF-CEM leukemia) was 46.2 µM and the TGI (786-0 renal) was 47 µM. The TGI (K-562 leukemia) was 80.7 µM, the TGI (LXFL 529 NSCLC) was 32.4 µM and the TGI (U251 CNS) was 37.5 µM. For the same compound, the TGI (HCT-116 colon) was 31.7 µM, the TGI (OVCAR-8 ovarian) was 52 µM and the TGI (KM12 colon) was 55.8 µM. For the same compound, the TGI (DMS 114 small cell lung) was 19.1 µM, the TGI (UACC-62 melanoma) was 25.8 µM and the TGI (COLO 205 colon) was 32 µM. The TGI (NCI-H226 lung) was 71.7 µM, the TGI (HOP-62 NSCLC) was 98.6 µM and the TGI (SF-539 CNS) was 40.1 µM. It also gave a TGI (LOX IMVI melanoma) of 20 µM, a TGI (UO-31 renal) of 34.7 µM and a TGI (IGROV1 ovarian) of 54.9 µM. The TGI (SK-MEL-28 melanoma) was 59.8 µM, the TGI (SK-OV-3 ovarian) was 53.3 µM and the TGI (MOLT-4 leukemia) was 43.1 µM. It also gave a TGI (NCI-H522 lung) of 25.9 µM, a TGI (SR leukemia) of 47.2 µM and a TGI (SF-268 CNS) of 58.4 µM. The TGI (NCI-H23 lung) was 76.7 µM, the TGI (MALME-3M melanoma) was greater than 100 µM and the TGI (KM20L2 colon) was 52.5 µM. For the same compound, the TGI (HOP-18 NSCLC) was greater than 100 µM, the TGI (TK-10 renal) was greater than 100 µM and the TGI (SW-620 colon) was 31.7 µM. The TGI (SNB-78 CNS) was 62 µM, the TGI (DLD-1 colon) was 43.1 µM and the TGI (HT29 colon) was 31.4 µM. It also gave a TGI (SF-295 CNS) of 65.1 µM, a TGI (SNB-75 CNS) of 92.6 µM and a TGI (OVCAR-4 ovarian) of 33.9 µM. The TGI (HL-60(TB) leukemia) was 61.5 µM, the TGI (HCC-2998 colon) was 45.8 µM and the TGI (EKVX NSCLC) was 77.8 µM. For the same compound, the TGI (RXF 393 renal) was 35.2 µM, the TGI (RXF-631 renal) was 29.8 µM and the TGI (DMS 273 small cell lung) was 25.1 µM. For the same compound, the TGI (A498 renal) was greater than 100 µM, the TGI (M14 melanoma) was 55.8 µM and the TGI (SK-MEL-2 melanoma) was 33.9 µM. The TGI (HOP-92 NSCLC) was 57.4 µM.
